From ChEMBL document CHEMBL1828558, “Discovery of (+)-N-(3-aminopropyl)-N-[1-(5-benzyl-3-methyl-4-oxo-[1,2]thiazolo[5,4-d]pyrimidin-6-yl)-2-methylpropyl]-4-methylbenzamide (AZD4877), a kinesin spindle protein inhibitor and potential anticancer agent” (J Med Chem, 2011)
pIC50: −log10 of the molar value.

Key:
[1] = Binding affinity to sodium channel in guinea pig atria by radioligand displacement assay; design: species or system Cavia porcellus
[2] = target: T1, Kinesin-like protein KIF11 (Homo sapiens, UniProt P52732); assay: Inhibition of human recombinant C-terminal His6-tagged KSP ATPase activity after 1 hr by malachite green assay
T1 sequence (P52732 whole entry): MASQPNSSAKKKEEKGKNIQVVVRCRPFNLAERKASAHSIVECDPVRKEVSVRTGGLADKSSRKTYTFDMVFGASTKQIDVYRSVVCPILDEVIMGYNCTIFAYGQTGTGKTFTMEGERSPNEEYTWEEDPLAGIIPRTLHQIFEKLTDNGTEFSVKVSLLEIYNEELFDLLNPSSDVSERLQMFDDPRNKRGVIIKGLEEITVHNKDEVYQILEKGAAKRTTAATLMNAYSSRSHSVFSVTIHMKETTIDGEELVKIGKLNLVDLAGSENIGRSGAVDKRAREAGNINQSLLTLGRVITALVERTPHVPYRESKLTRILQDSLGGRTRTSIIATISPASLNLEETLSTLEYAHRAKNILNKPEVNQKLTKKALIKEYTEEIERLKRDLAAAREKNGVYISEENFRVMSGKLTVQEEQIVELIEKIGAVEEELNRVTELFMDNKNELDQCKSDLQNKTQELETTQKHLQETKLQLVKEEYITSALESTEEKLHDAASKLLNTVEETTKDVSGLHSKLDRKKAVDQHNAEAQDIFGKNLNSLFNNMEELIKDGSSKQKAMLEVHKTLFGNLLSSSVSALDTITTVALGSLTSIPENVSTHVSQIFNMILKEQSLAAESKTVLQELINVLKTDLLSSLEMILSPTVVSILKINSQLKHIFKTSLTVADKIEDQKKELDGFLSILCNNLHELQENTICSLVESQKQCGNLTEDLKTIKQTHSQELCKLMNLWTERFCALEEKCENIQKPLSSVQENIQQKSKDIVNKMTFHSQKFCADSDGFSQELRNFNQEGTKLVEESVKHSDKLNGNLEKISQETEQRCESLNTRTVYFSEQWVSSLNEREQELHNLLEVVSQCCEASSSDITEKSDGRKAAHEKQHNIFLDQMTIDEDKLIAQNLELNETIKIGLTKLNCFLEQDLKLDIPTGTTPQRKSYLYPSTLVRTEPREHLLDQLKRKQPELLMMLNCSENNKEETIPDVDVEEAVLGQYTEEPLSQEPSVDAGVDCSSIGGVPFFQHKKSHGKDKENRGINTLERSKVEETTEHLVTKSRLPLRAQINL

[3] = Plasma concentration in Hans Wistar rat hollow fiber model implanted with human COLO205 cells at 6 mg/kg, iv after 24 hrs; type: ADME, organism-based, COLO 205; design: dose 6 mg/kg, route intravenous
Cytochrome P450 2C19 = Cytochrome P450 2C19 (Homo sapiens, UniProt P33261); assay: Inhibition of human recombinant CYP2C19; type: ADME
Sequence of Cytochrome P450 2C19 (P33261 whole entry): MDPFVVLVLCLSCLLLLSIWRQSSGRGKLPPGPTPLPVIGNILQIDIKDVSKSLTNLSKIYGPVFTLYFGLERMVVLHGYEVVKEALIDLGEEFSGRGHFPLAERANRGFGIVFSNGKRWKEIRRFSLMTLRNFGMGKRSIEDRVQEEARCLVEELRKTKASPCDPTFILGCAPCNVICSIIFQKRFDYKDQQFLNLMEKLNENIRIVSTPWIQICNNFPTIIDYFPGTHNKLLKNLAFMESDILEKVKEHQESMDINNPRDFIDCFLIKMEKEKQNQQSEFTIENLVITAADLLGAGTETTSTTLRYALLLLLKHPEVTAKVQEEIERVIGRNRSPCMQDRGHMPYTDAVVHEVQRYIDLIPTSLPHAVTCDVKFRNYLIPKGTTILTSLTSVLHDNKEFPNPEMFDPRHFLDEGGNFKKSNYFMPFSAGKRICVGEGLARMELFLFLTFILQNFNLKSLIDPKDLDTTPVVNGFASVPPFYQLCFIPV

[4] = Clearance in Wistar rat; type: ADME, organism-based; settings: in vivo
Cytochrome P450 3A4 = Cytochrome P450 3A4 (Homo sapiens, UniProt P08684); assay: Inhibition of human recombinant CYP3A4; type: ADME
Sequence of Cytochrome P450 3A4 (P08684 whole entry): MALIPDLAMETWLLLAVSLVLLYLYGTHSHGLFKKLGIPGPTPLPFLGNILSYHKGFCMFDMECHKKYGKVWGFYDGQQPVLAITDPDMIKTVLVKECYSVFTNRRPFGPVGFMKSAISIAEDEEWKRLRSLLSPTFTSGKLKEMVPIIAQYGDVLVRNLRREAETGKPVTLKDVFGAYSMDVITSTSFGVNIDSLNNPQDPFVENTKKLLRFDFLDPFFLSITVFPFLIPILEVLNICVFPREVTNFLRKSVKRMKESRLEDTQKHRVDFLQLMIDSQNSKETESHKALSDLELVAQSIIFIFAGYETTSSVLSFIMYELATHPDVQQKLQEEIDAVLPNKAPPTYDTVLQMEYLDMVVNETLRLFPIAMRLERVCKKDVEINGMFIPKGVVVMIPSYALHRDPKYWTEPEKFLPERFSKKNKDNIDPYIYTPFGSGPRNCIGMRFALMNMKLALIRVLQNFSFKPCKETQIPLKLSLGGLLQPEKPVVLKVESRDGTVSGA

[5] = target: T2, Kinesin-like protein KIF23 (Homo sapiens, UniProt Q02241); assay: Inhibition of human recombinant GST-MKLP1 after 20 mins by malachite green assay
T2 sequence (Q02241 whole entry): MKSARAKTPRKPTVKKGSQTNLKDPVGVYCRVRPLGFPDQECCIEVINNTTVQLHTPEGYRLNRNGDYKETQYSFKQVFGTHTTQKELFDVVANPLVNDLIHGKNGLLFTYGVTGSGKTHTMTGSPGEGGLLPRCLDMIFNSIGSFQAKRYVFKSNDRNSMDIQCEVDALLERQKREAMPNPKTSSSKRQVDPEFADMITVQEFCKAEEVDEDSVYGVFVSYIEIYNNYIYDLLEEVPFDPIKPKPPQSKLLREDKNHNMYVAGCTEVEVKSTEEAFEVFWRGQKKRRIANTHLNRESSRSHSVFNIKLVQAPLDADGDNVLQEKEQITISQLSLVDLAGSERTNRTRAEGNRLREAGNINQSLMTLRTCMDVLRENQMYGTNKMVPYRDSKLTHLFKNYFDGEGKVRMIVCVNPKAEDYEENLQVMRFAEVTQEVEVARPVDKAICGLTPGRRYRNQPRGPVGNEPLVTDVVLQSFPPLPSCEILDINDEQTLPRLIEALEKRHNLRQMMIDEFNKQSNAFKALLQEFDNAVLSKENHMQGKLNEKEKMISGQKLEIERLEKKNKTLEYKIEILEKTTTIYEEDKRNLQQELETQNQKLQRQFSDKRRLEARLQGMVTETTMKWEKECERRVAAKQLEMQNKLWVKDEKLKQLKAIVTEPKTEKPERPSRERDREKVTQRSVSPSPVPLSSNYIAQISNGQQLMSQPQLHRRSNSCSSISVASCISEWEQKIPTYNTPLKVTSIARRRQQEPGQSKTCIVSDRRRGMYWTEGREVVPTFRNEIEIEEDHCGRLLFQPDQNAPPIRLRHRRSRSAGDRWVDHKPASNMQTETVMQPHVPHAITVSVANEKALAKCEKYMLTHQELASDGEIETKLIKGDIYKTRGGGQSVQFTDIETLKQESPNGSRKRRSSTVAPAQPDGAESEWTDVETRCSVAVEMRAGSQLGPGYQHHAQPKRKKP

Cytochrome P450 2C9 = Cytochrome P450 2C9 (Homo sapiens, UniProt P11712); assay: Inhibition of human recombinant CYP2C9; type: ADME
Sequence of Cytochrome P450 2C9 (P11712 whole entry): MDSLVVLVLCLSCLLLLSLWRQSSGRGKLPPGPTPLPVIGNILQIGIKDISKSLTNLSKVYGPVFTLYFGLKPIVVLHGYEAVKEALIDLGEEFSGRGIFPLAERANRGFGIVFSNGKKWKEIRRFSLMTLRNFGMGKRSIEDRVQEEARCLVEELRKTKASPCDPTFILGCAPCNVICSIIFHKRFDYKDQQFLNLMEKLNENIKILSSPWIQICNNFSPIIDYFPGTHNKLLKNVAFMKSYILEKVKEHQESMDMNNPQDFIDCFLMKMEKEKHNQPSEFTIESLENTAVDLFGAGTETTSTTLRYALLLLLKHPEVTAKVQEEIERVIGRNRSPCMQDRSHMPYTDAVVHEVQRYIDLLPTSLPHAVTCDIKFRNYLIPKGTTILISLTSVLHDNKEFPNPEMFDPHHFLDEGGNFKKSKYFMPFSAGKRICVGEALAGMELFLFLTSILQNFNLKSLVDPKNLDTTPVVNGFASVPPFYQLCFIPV

SMILES: Cc1ccc(C(=O)N(CCCN)C(c2nc3snc(C)c3c(=O)n2Cc2ccccc2)C(C)C)cc1 (single isomer, unassigned; (+)) [AZD-4877]
- pIC50 [1]: < 4.52
- pIC50 [2]: 8.70
- concentration at 24 h [3]: 2.8 ng/mL
- pIC50 (Cytochrome P450 2C19): < 5.00
- clearance [4]: 36 mL/min/kg
- pIC50 (Cytochrome P450 3A4): < 5.00
- pIC50 [5]: 4.30
- pIC50 (Cytochrome P450 2C9): < 5.00
